Consider six compounds from PubChem BioAssay (NCI).

“And” between values parts separate entries of the source, which are not always exact repeats. Identical values can stand only once.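 Tested at 5 concentrations; 48 h exposure; 96-well plates; endpoints linearly interpolated, else capped at highest concentration. GI50 marks 50% less growth. TGI marks complete inhibition of growth.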

Some test systems named below: MOLT-4 leukemia; UO-31 renal; OVCAR-8 ovarian; HOP-92 NSCLC; LOX IMVI melanoma; KM12 colon; TK-10 renal; NCI-H226 lung; 786-0 renal; RXF 393 renal.
Holding throughout (assay): NCI-60 cell line screen, 48 h

In the case of `C#CCN1C(=O)/C(=c2\sc3n(c2=O)C2C(NN=3)N(CC)C(=O)N2CC)c2ccccc21` (centres undefined), the GI50 in the experiment with MOLT-4 leukemia was 0.708 µM; in the experiment with UO-31 renal, 0.673 µM; with OVCAR-8 ovarian, 1.07 µM; in the experiment with HOP-92 NSCLC, 1.55 µM; in the experiment on LOX IMVI melanoma, 0.73 µM; with KM12 colon, 0.46 µM. Moreover, the GI50 in the experiment on TK-10 renal was 14.1 µM; in the experiment with NCI-H226 lung, 1.25 µM; in the experiment with 786-0 renal it was 0.669 µM; in the experiment with RXF 393 renal, 0.354 µM. Besides, the TGI in the experiment on MOLT-4 leukemia was over 100 µM; in the experiment with UO-31 renal, over 100 µM; in the experiment with OVCAR-8 ovarian, over 100 µM; in the experiment with HOP-92 NSCLC, 78.7 µM; in the experiment with LOX IMVI melanoma it was over 100 µM; with KM12 colon, over 100 µM. For the same compound, the TGI was 51.4 µM with TK-10 renal, over 83.2 µM in the experiment with NCI-H226 lung, 22.5 µM in the experiment on 786-0 renal and 2.28 µM in the experiment on RXF 393 renal.
Consider `C/C1=C\[C@H](C)C[C@H](C)OC(=O)C[C@H](c2ccc(O)cc2)NC(=O)[C@@H](Cc2c(Br)[nH]c3ccccc23)N(C)C(=O)[C@H](C)NC(=O)[C@@H](C)C1`, for which the GI50 is 0.0764 µM in the experiment with MOLT-4 leukemia; 0.0968 µM in the experiment with UO-31 renal; 0.0516 µM in the experiment with OVCAR-8 ovarian; 0.0304 µM in the experiment on HOP-92 NSCLC; 0.0135 µM with LOX IMVI melanoma; 0.0982 µM in the experiment with TK-10 renal. Besides, the values for the GI50 in the experiment on NCI-H226 lung, in the experiment on 786-0 renal and with RXF 393 renal were 0.0268 µM, 0.0275 µM and 0.228 µM, respectively. Also, the TGI in the experiment with MOLT-4 leukemia was 4.54 µM; with UO-31 renal, 0.351 µM and 0.238 µM; in the experiment on OVCAR-8 ovarian, 0.568 µM; with HOP-92 NSCLC, 0.532 µM and 0.535 µM; in the experiment on LOX IMVI melanoma it was 0.317 µM and 0.0533 µM; in the experiment with KM12 colon, 39.8 µM. The TGI was 0.428 µM and 0.26 µM with TK-10 renal; 0.661 µM and 0.0703 µM in the experiment on NCI-H226 lung; 0.384 µM and 0.255 µM in the experiment on 786-0 renal; 0.464 µM and 0.615 µM with RXF 393 renal.
Consider `COc1ccc(/C(C)=C(\c2ccc(Cl)cc2)c2ccc(OCCN3CCCC3)cc2)cc1`, for which the GI50 in the experiment with MOLT-4 leukemia is 3.88 µM; in the experiment with UO-31 renal, 2.88 µM; in the experiment with OVCAR-8 ovarian it was 5.2 µM; in the experiment with HOP-92 NSCLC, 4.17 µM; in the experiment on LOX IMVI melanoma, 1.51 µM; with KM12 colon it was 1.98 µM. The GI50 in the experiment on TK-10 renal is 5.49 µM; with NCI-H226 lung, 5.54 µM; in the experiment on 786-0 renal, 2.43 µM; with RXF 393 renal, 3.39 µM. The TGI with MOLT-4 leukemia was determined as 10.9 µM; in the experiment on UO-31 renal it was 7.12 µM; in the experiment with OVCAR-8 ovarian, 10.2 µM; in the experiment on HOP-92 NSCLC, 8.7 µM; with LOX IMVI melanoma, 5.84 µM; with KM12 colon it was 6.6 µM. Besides, the TGI turned out to be 10.4 µM in the experiment with TK-10 renal, 11.6 µM in the experiment on NCI-H226 lung, 6.85 µM with 786-0 renal and 7.93 µM with RXF 393 renal.
In the case of `Cn1nc(C(F)(F)F)c(-c2ccc(Cl)c(C(F)(F)F)c2)c1-c1ccc(OCc2ccc(Cl)cc2)cc1O`, the GI50 was 1.81 µM in the experiment with MOLT-4 leukemia; 1.26 µM with UO-31 renal; 1.73 µM in the experiment with OVCAR-8 ovarian; 1.11 µM in the experiment with HOP-92 NSCLC; 1.58 µM in the experiment with LOX IMVI melanoma; 1.6 µM with KM12 colon. Moreover, the GI50 with TK-10 renal was 1.91 µM; with NCI-H226 lung, 1.73 µM; in the experiment with 786-0 renal it was 1.8 µM; in the experiment with RXF 393 renal, 1.41 µM. Moreover, the TGI with MOLT-4 leukemia was determined as 6.2 µM; with UO-31 renal, 4.39 µM; with OVCAR-8 ovarian, 6.37 µM; in the experiment on HOP-92 NSCLC, 3.02 µM; with LOX IMVI melanoma, 5.73 µM; in the experiment with KM12 colon it was 5.91 µM. In addition, the TGI with TK-10 renal was found to be 7.13 µM; with NCI-H226 lung, 6.84 µM; with 786-0 renal, 7.12 µM; in the experiment on RXF 393 renal, 4.32 µM.
Turning to `COC(=O)C[CH](C(=O)OC)[Ge]([CH3])([CH3])[S]c1ccccc1` (centres undefined), the GI50 with MOLT-4 leukemia is 3.37 µM; in the experiment with UO-31 renal, 7.06 µM; in the experiment with OVCAR-8 ovarian, 19.3 µM; in the experiment on HOP-92 NSCLC, 48.6 µM; in the experiment on LOX IMVI melanoma it was 4.92 µM; with KM12 colon, 17 µM. For the same compound, the GI50 was 38.9 µM in the experiment with TK-10 renal, 13.8 µM with NCI-H226 lung, 15.9 µM with 786-0 renal and 37.9 µM in the experiment with RXF 393 renal. The TGI with MOLT-4 leukemia is 18.4 µM; with UO-31 renal, 21 µM; in the experiment with OVCAR-8 ovarian, 76.9 µM; in the experiment with HOP-92 NSCLC it was 95.8 µM; with LOX IMVI melanoma it was 17.1 µM; in the experiment with KM12 colon, 46.2 µM. The TGI is over 100 µM in the experiment with TK-10 renal, 35.1 µM with NCI-H226 lung, 30.7 µM with 786-0 renal and 55.9 µM in the experiment with RXF 393 renal.
In the case of `S=c1nc[nH]c2c1ncn2Cc1ccco1`, the TGI in the experiment on MOLT-4 leukemia, with UO-31 renal, with OVCAR-8 ovarian, in the experiment on HOP-92 NSCLC, with LOX IMVI melanoma and in the experiment on KM12 colon was over 100 µM throughout. The TGI in the experiment with TK-10 renal, with NCI-H226 lung, in the experiment with 786-0 renal and in the experiment on RXF 393 renal was over 100 µM throughout.
